# Test results from patent US20240228558A9, “PEPTIDES AND METHODS FOR THE TREATMENT OF NEUROMYELITIS OPTICA” (IMCYSE SA, priority 2021, published 2024).
# Assays:
# [1] = Oxidoreductase activity of the immunogenic peptides, fluorescent assay (Tomazzolli et al.); type: biochemical; details: for oxidoreductase activity: reduction of self-quenched FITC peptides, mean of duplicates, read in RFU (FIGS. 1A-1E); for time at which oxidoreductase activity reached a plateau: FIG. 1A
# Text: The peptides of the invention comprise an MHC class II T-cell epitope or NKT cell epitope of AQP4 with a potential to trigger an immune reaction, and a modified oxidoreductase motif. The reducing activity of the motif sequence in the peptide can be assayed for its ability to reduce a sulfhydryl group such as in the insulin solubility assay wherein the solubility of insulin is altered upon reduction, or with a fluorescence-labelled substrate such as insulin. An example of such assay uses a fluorescent peptide and is described in Tomazzolli et al. (2006) Anal. Biochem. 350, 105-112. Two peptides with a FITC label become self-quenching when they covalently attached to each other via a disulfide bridge. Upon reduction by a peptide in accordance with the present invention, the reduced individual peptides become fluorescent again.
# The oxidoreductase activity of the immunogenic peptides of table 1 was determined using a fluorescent assay described in Tomazzolli et al. (2006) Anal. Biochem. 350, 105-112. Two peptides with a FITC label become self-quenching when they form a covalent disulfide bond. Upon reduction by a peptide in accordance with the present invention, the reduced individual FITC labelled peptides emit fluorescence again. The activity is expressed as the mean of duplicates. The results are expressed in Relative Fluorescent Units (RFU).
# [2] = target: T1, soluble HLA-DRB1*03:01 (DR3) human MHC II protein (Homo sapiens, UniProt P01903+P01911, A100K/A102G/A103R/A169T/F55Y/I96L/K41T/L162R/M171V/P40S/Q125H/Q178H/Q39Y/R42S/S66N/T106N/T262R/W38E/Y61H); test: Soluble phase competition binding assay to MHCII with biotin-labelled control peptide; details: competition with biotin-labelled high affinity control peptide, 18h, triplicates (FIGS. 2A-2E)
# T1 construct: purchased Benaroya Research Institute, Seattle, US
# Experimental: To test the binding of the immunogenic peptides of table 1 to MHCII molecules, a soluble phase competition assay is performed. The increasing concentrations of the peptides compete with biotin-labelled control peptide (high affinity binder of the corresponding MHCII molecule, Eurogentec, Seraing, Belgium) for binding to the soluble HLA-DRB1*03:01 (also named DR3) human MHC II protein (purchased from the Benaroya Research Institute, Seattle, US). As binding approaches its equilibrium (18h), biotin-labelled peptide/MHC II complexes are captured, separated from unbound reagents, and quantitatively detected by time-resolved fluorescence (Eu^3+ streptavidin, Perkin Elmer, Brussels, Belgium). Since the biotinylated control peptide is responsible for the fluorescence signal (Eu^3+ streptavidin/biotin interaction), the decrease in fluorescence intensity reflects the binding of tested peptides. Data are processed and plotted to ascertain dose-dependent binding properties of the peptides. All the tests are performed in triplicates.
# [3] = system: peptide-specific CD4+ T cell lines of NMO patients; test: Flow cytometry of TCR induced surface activation marker CD154 after overnight co-culture with autologous LCL; type: cell-based, human
# Text: (§1) PBMCs are isolated from blood samples of patients with NMO on Lymphoprep density gradients. CD14+ monocytes are isolated from these PBMCs by performing positive immunomagnetic separation with CD14 microbeads (Miltenyi Biotec, 130-050-201) according to the supplier recommendations. CD14+ monocytes are differentiated for six days and maturated to generate autologous dendritic cells (mDC). CD19+ B cells are isolated from the CD14− PBMCs fraction by performing positive immunomagnetic separation with CD19 microbeads (Miltenyi Biotec, 130-050-301) according to the supplier recommendations. CD19+B cells are cultured and immortalized with EBV to generate autologous lymphoblastoid cell lines (LCL). Naïve CD4+ T cells are also purified from the CD14− PBMCs fraction by performing negative immunomagnetic separation with naïve CD4+ T cell isolation kit (Miltenyi Biotec, 130-094-131) according to the supplier recommendations. Naïve CD4+ T cells are co-cultured with autologous mDC or LCL in the presence of the peptides of table 1. The CD4+ T cells are re-stimulated periodically, about every 10-12 days, to generate peptide-specific cell lines.
# The evaluation of the ability of the peptides of table 1 to generate peptide specific CD4+ T cells is evaluated by flow cytometry analysis of the TCR induced surface activation marker CD154 expression after overnight co-culture at resting state with autologous
# (§2) LCL without (no peptide) or with the peptides of table 1. The expression of the lytic marker Granzyme B is also evaluated by flow cytometry analysis in the supernatant of overnight co-culture with autologous LCL without (no peptide) or with the peptides of table 1. Supernatants are analyzed with a BioLegend kit according to the supplier recommendations.
# [4] = system: autologous LCL (lymphoblastoid cell lines) used as antigen presenting cells; test: Cytolytic activity: apoptosis of peptide-loaded autologous LCL co-cultured with peptide specific CD4+ T cells (Annexin V); type: cell-based, human
# Text: as §1
# The cytolytic activity of the peptide specific CD4+ T cells is evaluated by quantifying the apoptosis induced on LCL used as antigen presenting cells. Fluorescently labelled autologous LCL, loaded or not with the peptides, were overnight co-cultured at resting state with peptide specific CD4+ T cells, and LCL apoptosis was quantified by flow cytometry through Annexin V staining. Considering the apoptosis percentage of unloaded LCL, used as control, the percentage of specific apoptosis is calculated as follows: […]
# [5] = system: peptide-specific CD4+ T cell lines of NMO patients; test: Lytic marker Granzyme B in supernatant of overnight co-culture with autologous LCL; type: cell-based, human
# Text: as §1, §2
# [6] = system: peptide-specific CD4+ T cell lines of NMO patients; test: Cytokine secretion in CD4+ T cell culture supernatants (LEGENDplex Human Th Panel); type: cell-based
# Text: as §1
# The ability of the peptides of table 1 to induce cytokines secretion in CD4+ T cells culture supernatants is evaluated by flow cytometry analysis after overnight co-culture at resting state with autologous mDC or LCL without (no peptide) or with the peptides of table 1. Supernatants are analyzed with the LEGENDplex Human Th Panel (13-plex) (BioLegend, 740721) according to the supplier recommendations.
# [7] = P20-specific CD4+ T cell line, patient NMO-001, after 14 stimulations (FIG. 6)
# [8] = P20-specific CD4+ T cell lines NMO-001, NMO-003, NMO-006 (FIGS. 8 and 9)
# [9] = P12-specific CD4+ T cell line, patient NMO-001 (FIG. 13)
# [10] = P12-specific CD4+ T cell line NMO-001 (FIG. 14)
# [11] = culture supernatant of P20-CD4+ cell line from patient NMO-006 (FIG. 5)
sequence,measurement,setting,value
HCPYCRSQVETDDLILKPGVK [P22],oxidoreductase activity,[1],"displayed oxidoreductase activity, although to a lesser extend"
HCPYCTVAMVSTRKISIAK [P3],binding to HLA-DRB1*03:01,[2],less affinity than P12 and P20
"AGGLYEYVFSPDVEFKRRFK [short-S-WT epitope, reference compound]",reactivation of P20-specific CD4+ T cells (CD154+),[3]; P20-specific CD4+ T cells of NMO-001 patient (FIG. 4),could also be reactivated
same,percentage of specific LCL apoptosis,[4]; [7],increase in the percentage of specific LCL apoptosis
same,effector cells expressing the lytic marker Granzyme B,[5]; [8],specific increase of effector cells expressing the lytic marker Granzyme B
HCPYCVETIFASSDSKRTDVK (HCPYCVFTIFASSDSKRTDVK) [P15],oxidoreductase activity,[1],"displayed oxidoreductase activity, although to a lesser extend"
same,binding to HLA-DRB1*03:01,[2],less affinity than P12 and P20
HCPYCRENIMVAFKGVWTQAK [P1],binding to HLA-DRB1*03:01,[2],less affinity than P12 and P20
HCPYCTRKISIAKSVFYIAAKKK [P12],time at which oxidoreductase activity reached a plateau,[1],5 min
same,binding to HLA-DRB1*03:01,[2],bind to HLA-DRB1*03:01 with similar affinity
same,frequency of effector cells (CD3+CD4+CD154+),[3]; P12-specific CD4+ T cell lines of NMO patients -001 and -003 after multiple stimulations (FIG. 10),high frequency of effector cells
same,specific secretion of cytokines (IL-5 and IL-13),"[6]; culture supernatant of P12-specific CD4+ cell lines (FIG. 12, NMO-003)",specific secretion of cytokines (IL-5 and IL-13) induced
same,percentage of specific LCL apoptosis,[4]; [9],increase in the percentage of specific LCL apoptosis
same,effector cells expressing the lytic marker Granzyme B,[5]; [10],specific increase of effector cells expressing the lytic marker Granzyme B
"AGGLYEYVFCPDVEFKRRFK [short C-WT T-cell epitope, reference compound]",specific secretion of cytokines (IL-5 and IL-13),[6]; [11],specific secretion of cytokines (IL-5 and IL-13) induced
same,cross-reactivity (LCL apoptosis),[4]; CD4+ T cells of patient NMO-001 after 16 stimulations with P20 (FIG. 7),lower
same,effector cells expressing the lytic marker Granzyme B,[5]; [8],specific increase of effector cells expressing the lytic marker Granzyme B
HCPYCAVTVAMVCTRKISIAKK [P6],binding to HLA-DRB1*03:01,[2],less affinity than P12 and P20
"KVAMVCTRKISIAKSVFYIAAKK [short-WT epitope, reference compound]",reactivation of P12-specific CD4+ T cells (CD154+),[3]; P12-specific CD4+ T cells of NMO-001 patient (FIG. 11),could also be reactivated
same,percentage of specific LCL apoptosis,[4]; [9],increase in the percentage of specific LCL apoptosis
same,effector cells expressing the lytic marker Granzyme B,[5]; [10],specific increase of effector cells expressing the lytic marker Granzyme B
KHCPYCVFTIFASCDSKRTDVK [P18],binding to HLA-DRB1*03:01,[2],less affinity than P12 and P20
HCPYCEYVFSPDVEFKRRFK [P20],time at which oxidoreductase activity reached a plateau,[1],5 min
same,binding to HLA-DRB1*03:01,[2],bind to HLA-DRB1*03:01 with similar affinity
same,frequency of effector cells (CD3+CD4+CD154+),[3]; P20-specific CD4+ T cell lines of NMO patients -001 and -003 after multiple stimulations (FIG. 3),high frequency of effector cells
same,specific secretion of cytokines (IL-5 and IL-13),[6]; [11],specific secretion of cytokines (IL-5 and IL-13) induced
same,percentage of specific LCL apoptosis,[4]; [7],increase in the percentage of specific LCL apoptosis
same,apoptosis of loaded LCL,"[4]; P20-specific CD4+ T cell line, patient NMO-003, after 14 stimulations (FIG. 6)",Apoptosis of LCL loaded with P20 was also observed
same,LCL apoptosis,[4]; co-culture with CD4+ T cells of patient NMO-001 after 16 stimulations with P20 (FIG. 7),50%
same,effector cells expressing the lytic marker Granzyme B,[5]; [8],specific increase of effector cells expressing the lytic marker Granzyme B
